Test results reported in ChEMBL document CHEMBL3832761, “MMV Pathogen Box Bioactivity Data” (2017).
≈ marks a conversion by molar mass, not a printed value.

Experiments:
[1] = test system: HepG2; test: HepG2 inhibition at 10 uM (%) Cytotoxicity; assay type: functional; settings: Homo sapiens
[2] = test system: Plasmodium falciparum; test: Antimalarial activity: Gametocytes Plasmodium falciparum NF54 Gametocytes Stage V IC50 (uM); assay type: functional, organism-based
[3] = test system: Plasmodium falciparum; test: Antimalarial activity: Asexual Blood Stage Plasmodium falciparum Dd2 IC50 (uM); assay type: functional, organism-based
[4] = test system: Plasmodium falciparum; test: Antimalarial activity: Asexual Blood Stage Plasmodium falciparum 3D7 IC50 (uM); assay type: functional, organism-based
[5] = test system: Plasmodium berghei; test: Antimalarial activity: Liver Stage Plasmodium berghei sporozoite Luciferase assay IC50 (uM); assay type: functional, organism-based
[6] = test system: Plasmodium falciparum; test: Antimalarial activity: Asexual Blood Stage Plasmodium falciparum W2 IC50 (uM); assay type: functional, organism-based
[7] = test system: HepG2; test: Cytotoxicity data HepG2 CC20 (uM); assay type: functional
[8] = test system: Plasmodium berghei; test: Antimalarial activity: Liver Stage Plasmodium berghei sporozoite Luciferase assay: inhibition at 10 uM (%); assay type: functional
[9] = test system: HepG2; test: HepG2 CC50 (uM) Cytotoxicity; assay type: functional; settings: Homo sapiens
[10] = test system: Plasmodium falciparum; test: Antimalarial activity: Gametocytes Plasmodium falciparum NF54 Gametocytes Stage V: inhibition at 10 uM (%); assay type: functional
[11] = test system: Mycobacterium tuberculosis; test: AntiMycobacterium tuberculosis activity 2-week 7H9/DPPC/cholesterol/BSA/Tx MIC (uM); assay type: functional; settings: 336 h
[12] = test system: HepG2; test: HepG2 galactose CC50 (uM) Cytotoxicity; assay type: functional
[13] = test system: Mycobacterium tuberculosis; test: AntiMycobacterium tuberculosis activity 2-week Alamar Blue 7H9/cholesterol/BSA/Tx MIC (uM); assay type: functional; settings: 336 h
[14] = test system: Mycobacterium tuberculosis; test: AntiMycobacterium tuberculosis activity 1-week GAST/Fe MIC (uM); assay type: functional; settings: 168 h
[15] = test system: Mycobacterium tuberculosis; test: AntiMycobacterium tuberculosis activity Non-Replicating form: Average MIC90 (uM); assay type: functional
[16] = test system: Mycobacterium tuberculosis; test: AntiMycobacterium tuberculosis activity 1-week 7H9/ADC/Tw MIC (uM); assay type: functional; settings: 168 h
[17] = test system: Mycobacterium tuberculosis; test: AntiMycobacterium tuberculosis activity 1-week 7H9/DPPC/cholesterol/BSA/Tx MIC (uM); assay type: functional; settings: 168 h
[18] = test system: HepG2; test: HepG2 glucose CC50 (uM) Cytotoxicity; assay type: functional
[19] = test system: Mycobacterium tuberculosis; test: (§1) AntiMycobacterium tuberculosis activity day 10 in 7H9/2.5mM butyrate/pH6/0.1mM nitrite MIC90 (uM); assay type: functional; settings: 240 h
[20] = test system: Mycobacterium tuberculosis; test: AntiMycobacterium tuberculosis activity day 21 MIC99 in 7H9/2.5mM butyrate/pH6/0.1mM nitrite MIC99 (uM); assay type: functional; settings: 504 h
[21] = test system: Mycobacterium tuberculosis; test: AntiMycobacterium tuberculosis activity 2-week GAST/Fe MIC (uM); assay type: functional; settings: 336 h
[22] = test system: Mycobacterium tuberculosis; test: AntiMycobacterium tuberculosis activity 1-week 7H9/cholesterol/BSA/Tx MIC (uM); assay type: functional; settings: 168 h
[23] = test system: Mycobacterium tuberculosis; test: AntiMycobacterium tuberculosis activity 2-week 7H9/ADC/Tw MIC (uM); assay type: functional; settings: 336 h
[24] = test system: Mycobacterium tuberculosis; test: AntiMycobacterium tuberculosis activity day 21 in 7H9/2.5mM butyrate/pH6/0.1mM nitrite MIC90 (uM); assay type: functional; settings: 504 h
[25] = test system: Mycobacterium tuberculosis; test: AntiMycobacterium tuberculosis activity Replicating form: Average MIC90 (uM); assay type: functional
[26] = test system: Mycobacterium tuberculosis; test: AntiMycobacterium tuberculosis activity 1-week 7H9/glucose/BSA/Tx MIC (uM); assay type: functional; settings: 168 h
[27] = test system: Mycobacterium tuberculosis; test: as §1; assay type: functional; settings: 240 h; remark: listed apart in the source
[28] = test system: Mycobacterium tuberculosis; test: AntiMycobacterium tuberculosis activity 2-week 7H9/glucose/BSA/Tx MIC (uM); assay type: functional; settings: 336 h
[29] = test system: Mycobacterium tuberculosis; test: AntiMycobacterium tuberculosis activity 2-week Alamar Blue 7H9/ADC/Tw MIC (uM); assay type: functional; settings: 336 h

CCNC(=O)C(C)Nc1nc(-c2cccnc2)nc2sc(C)c(C)c12 (stereo not drawn)
inhibition at 10 µM [1]: 0%
IC50 [2]: 610 nM
IC50 [3]: > 2000 nM
IC50 [4]: > 2000 nM

NS(=O)(=O)c1cccc(-c2ccc3ncc(N4CCOCC4)nc3c2)c1
IC50 [5]: 1820 nM
IC50 [6]: 1850 nM
CC20 [7]: 7610 nM
Inhibition [8]: 100%
IC50 [2]: 1330 nM
IC50 [3]: 1660 nM
IC50 [4]: 1500 nM
CC50 [9]: > 10000 nM
Inhibition [10]: 92%

c1ccc(-c2cc(N3CCCCC3)c3ccccc3n2)nc1
IC50 [5]: 9700 nM
CC20 [7]: 22900 nM
Inhibition [8]: 92%
IC50 [2]: 510 nM
IC50 [3]: > 2000 nM
IC50 [4]: > 2000 nM
CC50 [9]: > 10000 nM
Inhibition [10]: 93%

CCOC(=O)c1c(NC(=O)c2c(F)c(F)c(F)c(F)c2F)sc(C(N)=O)c1C
MIC [11]: 0.3 µM (≈ 0.127 µg/mL)
CC50 [12]: > 50000 nM
CC50 ([12]; Homo sapiens, HepG2): 48800 nM
MIC [13]: 0.39 µM (≈ 0.165 µg/mL)
MIC [14]: 0.07 µM (≈ 0.0296 µg/mL)
MIC90 [15]: 0.23 µM (≈ 0.0971 µg/mL)
MIC [16]: 0.1 µM (≈ 0.0422 µg/mL)
MIC [17]: 0.05 µM (≈ 0.0211 µg/mL)
CC50 [18]: 23500 nM
CC50 ([18]; Homo sapiens, HepG2): 31700 nM
MIC90 [19]: 0.78 µM (≈ 0.329 µg/mL)
MIC [20]: > 50 µM
MIC [21]: 0.1 µM (≈ 0.0422 µg/mL)
CC50 [9]: 4200 nM
MIC [22]: 0.07 µM (≈ 0.0296 µg/mL)
MIC [23]: 0.39 µM (≈ 0.165 µg/mL)
MIC90 [24]: 6.25 µM (≈ 2.64 µg/mL)
MIC90 [25]: < 0.25 µM
MIC [26]: 0.1 µM (≈ 0.0422 µg/mL)
MIC90 [27]: > 50 µM
MIC [28]: 0.39 µM (≈ 0.165 µg/mL)
MIC [29]: 0.39 µM (≈ 0.165 µg/mL)

CN1CCC(NCc2cccc(-c3ccc(S(=O)(=O)NCc4ccccc4)cc3)c2)CC1
IC50 [5]: 4550 nM
IC50 [6]: 2140 nM
CC20 [7]: 4150 nM
Inhibition [8]: 99%
IC50 [2]: 1420 nM
IC50 [3]: 2060 nM
IC50 [4]: 820 nM
CC50 [9]: > 10000 nM
Inhibition [10]: 95%

Cc1ccc2c(c1C)NC(=O)C21NN=C(c2ccccc2)S1 (stereo not drawn)
IC50 [5]: 880 nM
IC50 [6]: 890 nM
CC20 [7]: >80000 nM
Inhibition [8]: 100%
IC50 [2]: 900 nM
IC50 [3]: 2130 nM
IC50 [4]: 1130 nM
CC50 [9]: > 7500 nM
Inhibition [10]: 78%

CCn1ncc2c(NC3CCOCC3)c(CNC(=O)c3ccnn3C)c(C)nc21
IC50 [5]: 1600 nM
IC50 [6]: 600 nM
CC20 [7]: 24500 nM
Inhibition [8]: 100%
IC50 [2]: 240 nM
IC50 [3]: 390 nM
IC50 [4]: 280 nM
CC50 [9]: > 10000 nM
Inhibition [10]: 89%

CN(C(=O)c1cc2c(-c3cncnc3)cccc2[nH]1)c1ccccc1
IC50 [5]: 1020 nM
IC50 [6]: 790 nM
CC20 [7]: 6040 nM
Inhibition [8]: 100%
IC50 [2]: 570 nM
IC50 [3]: 670 nM
IC50 [4]: 720 nM
CC50 [9]: > 10000 nM
Inhibition [10]: 81%

COc1ccc(-c2cnc3ccc(N4CCCC4)nn23)cc1OC
IC50 [5]: 630 nM
IC50 [6]: 860 nM
CC20 [7]: 4950 nM
Inhibition [8]: 100%
IC50 [2]: 410 nM
IC50 [3]: 670 nM
IC50 [4]: 700 nM
CC50 [9]: > 10000 nM
Inhibition [10]: 91%

CCN(CC)S(=O)(=O)c1ccc(Cl)c(C(=O)Nc2ccc3nc(C)sc3c2)c1
IC50 [5]: 1310 nM
IC50 [6]: 590 nM
CC20 [7]: 10000 nM
Inhibition [8]: 100%
IC50 [2]: 3910 nM
IC50 [3]: 550 nM
IC50 [4]: 500 nM
CC50 [9]: > 10000 nM
Inhibition [10]: 86%

Cc1cc(C)nc(-n2nc(C)cc2Nc2ccccc2)n1
inhibition at 10 µM [1]: 7%
IC50 [2]: 220 nM
IC50 [4]: > 2000 nM

CNC(=O)CNc1nc(-c2ccccn2)nc2scc(-c3ccccc3)c12
inhibition at 10 µM [1]: 4%
IC50 [2]: 840 nM
IC50 [3]: > 2000 nM
IC50 [4]: > 2000 nM

Cc1ccc(-c2nc(CN(Cc3ccccn3)C(C)C)cs2)o1
inhibition at 10 µM [1]: 47%
IC50 [2]: 450 nM
IC50 [3]: > 2000 nM
IC50 [4]: > 2000 nM
